In patent publication US5192774A, “Substituted acetamide derivatives, process for their preparation and antiulcer drug containing same” (Zeria Pharmaceutical Co., Ltd., priority 1988, dated 1993):

Tests used:
[1] = test system: gastric acid secretion (histamine-stimulated); test: Effects on Gastric Acid Secretion of Anesthesia Fistula Rat by Histamine; assay type: in vivo, rat (male SD); conditions: 30 mg/kg, histamine infusion, acid output 1 to 4 hours after administration
Experimental: The aggressive factor inhibition action was evaluated from the effects on the gastric acid secretion of anesthesia fistula rats by histamine, while the protective factor potentiation action was evaluated from the effects observed in a hydrochloric acid-ethanol ulcer model. In the Tables, the column of test compounds indicates Example numbers where the compounds are prepared. Male SD rats (Japan Charles River Co., Ltd.) each weighing 180 to 200 g were fasted for 24 hours before celiotomy with etherrization. A feeding tube (fr. 3.5) for injecting test medicines was inserted into the duodenum, and the pylorus was ligatured. A polyethylene tube (inner diameter: 7 mm) was used in the anterior stomach and gastric fistula was performed. After washing the inside of the stomach with heated physiological salt solution (37° C.) several times, the body was closed. A tube with a fin was inserted into the caudal vein and was fastened with a tape and it was connected to a infusion pump (Harvard). The rats were enclosed in a KN Ballman II cage (Natsume Seisakusho). Gastric juice flowed from the fistula was collected with a […] one hour. Starting form one hour after the operation, histamine was continuously injected at a rate of 1.4 ml/hour through the caudal vein. Then, test compounds suspended in 0.5% sodium caboxy methyl cellulose (Na-CMC) were administered one hour after the start of the histamine injection. The gastric juice thus extracted in a period from one hour after the administration of the chemical to four hours after that was titrated by using an automatic titration aparatus (Kyoto Electronic) with 0.1N NaOH to adjust pH 7, and the quantity of the gastric juice was measured to obtain the total acid output. […] [formula]

[2] = test system: ulcer formation caused by hydrochloric acid-ethanol; test: Hydrochloric Acid-Ethanol Ulcer Test; assay type: in vivo, rat (male SD); conditions: 100 mg/kg, oral, 30 minutes before hydrochloric acid-ethanol; rat
Experimental: The aggressive factor inhibition action was evaluated from the effects on the gastric acid secretion of anesthesia fistula rats by histamine, while the protective factor potentiation action was evaluated from the effects observed in a hydrochloric acid-ethanol ulcer model. In the Tables, the column of test compounds indicates Example numbers where the compounds are prepared.
Male SD rats each weighing 170 to 190 g were fasted for 24 hours, and 1 ml of 150 mM hydrochloric acid-60% ethanol was orally administered to each rat. After one hour, rats were clubbed to death, and the stomach was extracted. 10 ml of 2% formalin solution was applied to the stomach for fixing for 10 minutes. The length (mm) of the injuries in the tunica mucosa taken place in the glandular stomach was measured under a stereoscopic microscope. The total length of the injuries of the individual was taken as the ulcer index.
Test compounds or control (1% Na-CMC) were orally administered in an amount of 0.5 ml/100 g, 30 minutes before the administration of hydrochloric acid-ethanol.

[3] = test system: ICR:Crj 5 week old male mice; test: Toxicity test, repeated oral administration for 14 days; assay type: in vivo, mouse (ICR:Crj; conditions: 500 mg/kg/day
Experimental: (§1) The compounds according to Examples 2, 7, 8 and 12 were respectively suspended in 3% gum arabic solution and continuously, forcedly and orally administrated to three ICR:Crj 5 week old male mice for 14 days at a dose of 500 mg/kg/day.

[4] = Acute toxicity test by oral administration; assay type: in vivo
Experimental: as §1

For CN/C(=N/CCSCc1nc[nH]c1C)NC#N [Cimetidine, reference compound], the “Gastric acid secretion inhibition effect (%)” value [1] was 32.3% and the “Ulcer Inhibition Rate(%)” value [2] was 22.7%.

For O=C(CSCCO)NCCCOc1cccc(CN2CCCCC2)c1 [Example 2, N-[3-[3-(piperidinomethyl)phenoxy]propyl]-2-(2-hydroxyethyl-1-thio)acetamide], the “Gastric acid secretion inhibition effect (%)” value [1] was 79.5%, the “Ulcer Inhibition Rate(%)” value [2] was 72.5% and the death [3] was “No rat died”. The LD50 ([4]; mouse, in vivo, po) was 2380 mg/kg.

With O=C(CS(=O)(=O)CCO)NCCCOc1cccc(CN2CCCCC2)c1 [Example 7, N-[3-[3-(piperidinomethyl)phenoxy]propyl]-2-(2-hydroxyethylsulfonyl)acetamide] the “Gastric acid secretion inhibition effect (%)” value [1] was 59.4% and the death [3] was “No rat died”.

With O=C(CSCCO)NCCCOc1cccc(CN2CCCC2)c1 [Example 8, N-[3-[3-(1-pyrrolidinylmethyl)phenoxy]propyl]-2-(2-hydroxyethyl-1-thio)acetamide] the “Gastric acid secretion inhibition effect (%)” value [1] was 70.9% and the death [3] was “No rat died”.

In the case of CC(=O)OCCSCC(=O)NCCCOc1cccc(CN2CCCC2)c1 [Example 12, N-[3-[3-(1-pirrolidinylmethyl)phenoxy]propyl]-2-(2-acetoxyethyl-1-thio)acetamide], the “Gastric acid secretion inhibition effect (%)” value [1] was 55.4% and the death [3] was “No rat died”.

For O=C(CO)NCCCOc1cccc(CN2CCCCC2)c1 [Roxatidine, reference compound], the “Gastric acid secretion inhibition effect (%)” value [1] was 68.8%, the “Ulcer Inhibition Rate(%)” value [2] was 69.4% and the LD50 value ([4]; acute, oral administration) was 755 mg/kg.
